{"source": "ChEMBL document CHEMBL1154115", "about": "“NO-glibenclamide derivatives: prototypes of a new class of nitric oxide-releasing anti-diabetic drugs” (Bioorg Med Chem, 2009)", "key": {"Platelet": {"test_system": "Platelet", "assay": "Inhibition of ADP-induced platelet aggregation in human platelet-rich plasma at 100 uM treated 2 mins before ADP challenge by turbidimetric method", "type": "functional", "set-up": "scale not given: the % may be the effect or the level left"}, "Rattus norvegicus": {"test_system": "Rattus norvegicus", "assay": "Hypoglycemic activity in streptozotocin-induced diabetic Wistar rat assessed as reduction in blood glucose AUC level at 10 mg/kg, ip measured for 2 hrs (Rvb= 45318 mg/dl/2 h)", "type": "functional, organism-based", "set-up": "dose 10 mg/kg"}, "[1]": {"assay": "Induction of 20 mM glucose-stimulated insulin secretion in human pancreatic islet cells assessed as insulin stimulation index at 10 uM by immunoradiometric assay", "type": "functional"}, "[2]": {"assay": "Induction of 20 mM glucose-stimulated insulin secretion in human pancreatic islet cells assessed as insulin stimulation index at 100 uM by immunoradiometric assay", "type": "functional"}, "Liver": {"test_system": "Liver", "assay": "Induction of NO release in Wistar rat liver homogenate at 200 uM by amperometric detection method", "type": "functional, tissue-based"}, "Aorta": {"test_system": "Aorta", "assay": "Vasorelaxant activity in endothelium-denuded Wistar rat thoracic aortic ring assessed as inhibition of KCl-induced contraction", "type": "functional, tissue-based"}}, "note": "Activity calls are given as the source filed them. The rule behind the calls is not given here."}
{"smiles": "COc1ccc(Cl)cc1C(=O)NCCc1ccc(S(=O)(=O)NC(=O)N[C@H]2CC[C@H](O)CC2)cc1", "note": "[4-TRANS-HYDROXY-GLYBENCLAMIDE]", "values": [{"measurement": "Activity", "setting": "Platelet", "value": 76, "unit": "%"}, {"measurement": "AUC", "setting": "Rattus norvegicus", "value": 34500, "unit": "mg·min/dL"}, {"measurement": "Activity", "setting": "[1]", "value": 6}, {"measurement": "Activity", "setting": "[2]", "value": 8.2}, {"measurement": "Activity", "setting": "Liver", "value": "inactive"}]}
{"smiles": "COc1ccc(Cl)cc1C(=O)NCCc1ccc(S(=O)(=O)NC(=O)NC2CCCCC2)cc1", "note": "[GLYBURIDE]", "values": [{"measurement": "Activity", "setting": "Platelet", "value": 67, "unit": "%"}, {"measurement": "AUC", "setting": "Rattus norvegicus", "value": 33100, "unit": "mg·min/dL"}, {"measurement": "Activity", "setting": "[1]", "value": 4.3}, {"measurement": "Activity", "setting": "[2]", "value": 5.2}, {"measurement": "Activity", "setting": "Liver", "value": "inactive"}]}
{"smiles": "O=[N+]([O-])OCC(CO[N+](=O)[O-])O[N+](=O)[O-]", "note": "[NITROGLYCERIN]", "values": [{"measurement": "Emax", "setting": "Aorta", "value": 98, "unit": "%"}, {"measurement": "IC50", "setting": "Aorta", "value": 0.0589, "unit": "µM"}, {"measurement": "Activity", "setting": "Platelet", "value": 28, "unit": "%"}, {"measurement": "Activity", "setting": "Liver", "value": 600, "unit": "nM"}]}
